According to patent US20260125382A1, “COMPOUNDS FOR INHIBITING OR DEGRADING CDK2 AND/OR CDK9 AND MEDICINAL USE THEREOF” (KOREA RESEARCH INSTITUTE OF CHEMICAL TECHNOLOGY, priority 2022, published 2026):

Legend:
CDK2 = target: T1, CDK2 (Homo sapiens, UniProt P24941); assay: CDK protein degradation activity (Western blotting), CDK2; type: cell-based; details: MDA-MB-231 cells, 16 hours, Western blot
T1 construct: endogenous in cells; host or cells: MDA-MB-231
How it was run: (§1)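 Breast cancer line MDA-MB-231, 16 h compound treatment (100 nM–10 μM final, three doses). Immunoblot quantification of CDK2/CDK9 versus tubulin, normalized to DMSO control.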

CDK9 = target: T2, CDK9 (Homo sapiens, UniProt P50750); assay: CDK protein degradation activity (Western blotting), CDK9; type: cell-based; details: MDA-MB-231 cells, 16 hours, Western blot
T2 construct: endogenous in cells; host or cells: MDA-MB-231
T2 sequence (P50750 whole entry): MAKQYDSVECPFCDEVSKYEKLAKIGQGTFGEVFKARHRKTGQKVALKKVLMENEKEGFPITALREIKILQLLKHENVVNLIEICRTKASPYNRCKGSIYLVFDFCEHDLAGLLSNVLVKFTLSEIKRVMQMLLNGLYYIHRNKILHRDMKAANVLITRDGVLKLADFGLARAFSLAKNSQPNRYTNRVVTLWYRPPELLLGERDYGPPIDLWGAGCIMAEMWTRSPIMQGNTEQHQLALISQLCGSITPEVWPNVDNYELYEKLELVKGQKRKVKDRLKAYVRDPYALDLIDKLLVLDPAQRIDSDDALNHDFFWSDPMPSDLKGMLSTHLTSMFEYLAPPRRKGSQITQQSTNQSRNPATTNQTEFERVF
How it was run: as §1

| Compound | Enzyme degradation CDK2 (% remaining) @ 0.1 μM (CDK2) | Enzyme degradation CDK2 (% remaining) @ 1 μM (CDK2) | Enzyme degradation CDK2 (% remaining) @ 10 μM (CDK2) | Enzyme degradation CDK9 (% remaining) @ 0.1 μM (CDK9) | Enzyme degradation CDK9 (% remaining) @ 1 μM (CDK9) | Enzyme degradation CDK9 (% remaining) @ 10 μM (CDK9) |
| --- | --- | --- | --- | --- | --- | --- |
| Cc1cccc(C(=O)NC2CC(n3cnc4c(NCc5ccc(N6CCN(CC7CCN(c8cccc9c8C(=O)N([C@H]8CCC(=O)NC8=O)C9=O)CC7)CC6)cc5)ncnc43)C2)n1 (stereo partly drawn) [Compound 150, N-((1s,3s)-3-(6-((4-(4-((1-(2-(2,6-dioxopiperidin-3-yl)-1,3-dioxoisoindolin-4-yl)piperidin-4-yl)methyl)piperazin-1-yl)benzyl)amino)-9H-purin-9-yl)cyclobutyl)-6-methylpicolinamide] | 70% | 80% | 80% | 20% | 10% | 0% |
| Cc1cccc(C(=O)N[C@H]2C[C@@H](n3cnc4c(NCc5ccc(N6CCN(CC7CCN(c8ccc9c(c8)C(=O)N([C@H]8CCC(=O)NC8=O)C9=O)CC7)CC6)cc5)ncnc43)C2)n1 [Compound 151, N-((1s,3s)-3-(6-((4-(4-((1-(2-(2,6-dioxopiperidin-3-yl)-1,3-dioxoisoindolin-5-yl)piperidin-4-yl)methyl)piperazin-1-yl)benzyl)amino)-9H-purin-9-yl)cyclobutyl)-6-methylpicolinamide] | 30% | 10% | 10% | 0/0/0% | 0/0/0% | 0/0/0% |
| Cc1cccc(C(=O)NC2CC(n3cnc4c(NCc5ccc(N6CCN(CC7CCN(C(=O)CNc8cccc9c8C(=O)N([C@H]8CCC(=O)NC8=O)C9=O)CC7)CC6)cc5)ncnc43)C2)n1 (stereo partly drawn) [Compound 152, N-((1s,3s)-3-(6-((4-(4-((1-((2-(2,6-dioxopiperidin-3-yl)-1,3-dioxoisoindolin-4-yl)glycyl)piperidin-4-yl)methyl)piperazin-1-yl)benzyl)amino)-9H-purin-9-yl)cyclobutyl)-6-methylpicolinamide] | 10/10/10% | 10/10/10% | 10/10/10% | 0/0/0% | 0/0/0% | 0/0/0% |
| Cc1cccc(C(=O)NC2CC(n3cnc4c(NCc5ccc(N6CCN(CC7CCN(C(=O)CNc8ccc9c(c8)C(=O)N([C@H]8CCC(=O)NC8=O)C9=O)CC7)CC6)cc5)ncnc43)C2)n1 (stereo partly drawn) [Compound 153, N-((1s,3s)-3-(6-((4-(4-((1-((2-(2,6-dioxopiperidin-3-yl)-1,3-dioxoisoindolin-5-yl)glycyl)piperidin-4-yl)methyl)piperazin-1-yl)benzyl)amino)-9H-purin-9-yl)cyclobutyl)-6-methylpicolinamide] | 10/10/10% | 10/10/10% | 10/10/10% | 0/0/0% | 0/0/0% | 0/0/0% |
| CC(=O)N[C@H]1C[C@@H](n2cnc3c(NCC4CCN(CC5CCN(C(=O)COc6ccc7c(c6)C(=O)N([C@H]6CCC(=O)NC6=O)C7=O)CC5)CC4)ncnc32)C1 [Compound 154, N-((1s,3s)-3-(6-(((1-((1-(2-((2-(2,6-dioxopiperidin-3-yl)-1,3-dioxoisoindolin-5-yl)oxy)acetyl)piperidin-4-yl)methyl)piperidin-4-yl)methyl)amino)-9H-purin-9-yl)cyclobutyl)acetamide] | 100% | 70% | 70% | 90% | 70% | 30% |
| CC(=O)NC1CC(n2cnc3c(NCC4CCN(CC5CCN(C(=O)COc6cccc7c6C(=O)N([C@H]6CCC(=O)NC6=O)C7=O)CC5)CC4)ncnc32)C1 (stereo partly drawn) [Compound 155, N-((1s,3s)-3-(6-(((1-((1-(2-((2-(2,6-dioxopiperidin-3-yl)-1,3-dioxoisoindolin-4-yl)oxy)acetyl)piperidin-4-yl)methyl)piperidin-4-yl)methyl)amino)-9H-purin-9-yl)cyclobutyl)acetamide] | 100% | 80% | 10% | 90% | 40% | 0% |
| CC(=O)N[C@H]1C[C@@H](n2cnc3c(NCC4CCN(CC5CCN(C(=O)CNc6ccc7c(c6)C(=O)N([C@H]6CCC(=O)NC6=O)C7=O)CC5)CC4)ncnc32)C1 [Compound 156, N-((1s,3s)-3-(6-(((1-((1-((2-(2,6-dioxopiperidin-3-yl)-1,3-dioxoisoindolin-5-yl)glycyl)piperidin-4-yl)methyl)piperidin-4-yl)methyl)amino)-9H-purin-9-yl)cyclobutyl)acetamide] | 100% | 80% | 70% | 80% | 50% | 40% |
| CC(=O)NC1CC(n2cnc3c(NCC4CCN(CC5CCN(c6cccc7c6C(=O)N([C@H]6CCC(=O)NC6=O)C7=O)CC5)CC4)ncnc32)C1 (stereo partly drawn) [Compound 159, N-((1s,3s)-3-(6-(((1-((1-(2-(2,6-dioxopiperidin-3-yl)-1,3-dioxoisoindolin-4-yl)piperidin-4-yl)methyl)piperidin-4-yl)methyl)amino)-9H-purin-9-yl)cyclobutyl)acetamide] | 100% | 80% | 50% | 90% | 70% | 30% |
| CC(=O)N[C@H]1C[C@@H](n2cnc3c(NCc4ccc(N5CCN(CC6CCN(C(=O)CNc7ccc8c(c7)C(=O)N([C@H]7CCC(=O)NC7=O)C8=O)CC6)CC5)cc4)ncnc32)C1 [Compound 161, N-((1s,3s)-3-(6-((4-(4-((1-((2-(2,6-dioxopiperidin-3-yl)-1,3-dioxoisoindolin-5-yl)glycyl)piperidin-4-yl)methyl)piperazin-1-yl)benzyl)amino)-9H-purin-9-yl)cyclobutyl)acetamide] | 90% | 80% | 60% | 30% | 10% | 10% |

Next, values leading:

| Enzyme degradation CDK2 (% remaining) @ 0.1 μM (CDK2) | Enzyme degradation CDK2 (% remaining) @ 1 μM (CDK2) | Enzyme degradation CDK2 (% remaining) @ 10 μM (CDK2) | Enzyme degradation CDK9 (% remaining) @ 0.1 μM (CDK9) | Enzyme degradation CDK9 (% remaining) @ 1 μM (CDK9) | Enzyme degradation CDK9 (% remaining) @ 10 μM (CDK9) | Compound |
| --- | --- | --- | --- | --- | --- | --- |
| 50/50/50% | 50/50/50% | 50/50/50% | 0/0/0% | 0/0/0% | 0/0/0% | O=C1CC[C@H](N2C(=O)c3ccc(OCC(=O)N4CCC(CN5CCN(c6ccc(Nc7ncnc8c7ncn8[C@H]7C[C@@H](NC(=O)c8c(Cl)cccc8Cl)C7)cc6)CC5)CC4)cc3C2=O)C(=O)N1 [Compound 162, 2,6-dichloro-N-((1s,3s)-3-(6-((4-(4-((1-(2-((2-(2,6-dioxopiperidin-3-yl)-1,3-dioxoisoindolin-5-yl)oxy)acetyl)piperidin-4-yl)methyl)piperazin-1-yl)phenyl)amino)-9H-purin-9-yl)cyclobutyl)benzamide] |
| 20% | 10% | 10% | 0/0/0% | 0/0/0% | 0/0/0% | O=C1CC[C@H](N2C(=O)c3cccc(OCC(=O)N4CCC(CN5CCN(c6ccc(Nc7ncnc8c7ncn8[C@H]7C[C@@H](NC(=O)c8c(Cl)cccc8Cl)C7)cc6)CC5)CC4)c3C2=O)C(=O)N1 [Compound 163, 2,6-dichloro-N-((1s,3s)-3-(6-((4-(4-((1-(2-((2-(2,6-dioxopiperidin-3-yl)-1,3-dioxoisoindolin-4-yl)oxy)acetyl)piperidin-4-yl)methyl)piperazin-1-yl)phenyl)amino)-9H-purin-9-yl)cyclobutyl)benzamide] |
| 30/30/30% | 30/30/30% | 30/30/30% | 0/0/0% | 0/0/0% | 0/0/0% | O=C1CC[C@H](N2C(=O)c3ccc(NCC(=O)N4CCC(CN5CCN(c6ccc(Nc7ncnc8c7ncn8C7CC(NC(=O)c8c(Cl)cccc8Cl)C7)cc6)CC5)CC4)cc3C2=O)C(=O)N1 (stereo partly drawn) [Compound 164, 2,6-dichloro-N-((1s,3s)-3-(6-((4-(4-((1-((2-(2,6-dioxopiperidin-3-yl)-1,3-dioxoisoindolin-5-yl)glycyl)piperidin-4-yl)methyl)piperazin-1-yl)phenyl)amino)-9H-purin-9-yl)cyclobutyl)benzamide] |
| 10/10/10% | 10/10/10% | 10/10/10% | 0/0/0% | 0/0/0% | 0/0/0% | O=C1CC[C@H](N2C(=O)c3cccc(NCC(=O)N4CCC(CN5CCN(c6ccc(Nc7ncnc8c7ncn8[C@H]7C[C@@H](NC(=O)c8c(Cl)cccc8Cl)C7)cc6)CC5)CC4)c3C2=O)C(=O)N1 [Compound 165, 2,6-dichloro-N-((1s,3s)-3-(6-((4-(4-((1-((2-(2,6-dioxopiperidin-3-yl)-1,3-dioxoisoindolin-4-yl)glycyl)piperidin-4-yl)methyl)piperazin-1-yl)phenyl)amino)-9H-purin-9-yl)cyclobutyl)benzamide] |
